Tests used:
[1] = system: OsPEP1 RNAi transgenic plants; assay: Exogenous PEP1 on root tips of OsPEP1 RNAi transgenic plants; format: in vivo, rice Xiushui 134; settings: transgenic plant Ri2, 10^−6 M PEP1 for 2 days
From the text: D is the longitudinal phenotype of the root tip elongation zone (top) and meristem (bottom) of the wild-type WT and the transgenic plant Ri2 […] treated with 10^−6 M PEP1 for 2 days. Bar=100 μm;
(§1) E is the statistics of the apical meristem length indicated in D. Data are means±SD (n≥15 independent seedlings, three biological replicates). Different letters indicate significant differences (P<0.01, ANOVA, LSD test);
F is the statistics of cell length in the elongation zone indicated in D. Data are means±SD (n≥15 independent seedlings, three biological replicates). Different letters indicate significant differences (P<0.01, ANOVA, LSD test).
In the obtained T2 OsPEP1 RNAi transgenic plants, three representative plants (Ri1, Ri2, Ri3) were selected for phenotypic analysis. […] The relative expression levels of endogenous OsPEP1 in Xiushui 134 and those OsPEP1 RNAi transgenic plants (Ri1, Ri2, Ri3) were analyzed by quantitative real-time PCR (primers: […] (SEQ ID NO: 9); […] (SEQ ID NO: 10)). […] Additionally, exogenous application of PEP1 could restore the root tip defected phenotype of OsPEP1 RNAi transgenic plants to the Xiushui 134 level (D-F in FIG. 5).

rice seedlings = assay: Treatment of rice seedlings with synthetic PEP1, primary root length; format: in vivo, Oryza sativa L. ssp. Japonica cv. Xiushui134; settings: wild-type seedlings, different concentrations of synthetic PEP1, treatment from sowing for 7 days
From the text: Different letters indicate significant differences (P<0.01, ANOVA, LSD test);

rice root tips = assay: Root tip longitudinal sections of wild-type rice after PEP1 treatment; format: in vivo, Oryza sativa L. ssp. Japonica cv. Xiushui134; set-up: length of cells in the elongation zone of rice root tips: dose or concentration left out as unconfirmed; settings: wild-type plants
[2] = system: OsPEP1 overexpressing transgenic plants; assay: Exogenous PEP1 on root tips of OsPEP1 overexpressing transgenic plants; format: in vivo, rice Xiushui 134; settings: transgenic plant OE2, 10^−6 M PEP1 for 2 days
From the text: as §1
F is the statistics of the cell length in the elongation zone indicated in D. Data are means±SD (n≥15 independent seedlings, three biological replicates). Different letters indicate significant differences (P<0.01, ANOVA, LSD test).
In the obtained T2 OsPEP1 overexpressing transgenic rice plants, three representative plants (OE1, OE2, OE3) were chosen for phenotypic analysis. […] The relative expression levels of endogenous OsPEP1 in Xiushui 134 and OsPEP1 overexpressing transgenic plants (OE1, OE2, OE3) were analyzed by quantitative real-time PCR (primers: […] (SEQ ID NO: 9); […] (SEQ ID NO: 10)).

With “Ser-Asp-Phe-Asp-Arg (SDFDR; Amino acid sequence of PEP1) [rice root-secreted peptide of five amino acids, artificially synthesized for exogenous application]” the “restoration of root tip defected phenotype to the Xiushui 134 level” value [1] was “could restore”, the “rice primary root elongation” value (rice seedlings) was “significantly inhibited rice primary root elongation” and the “length of the meristem of rice root tips” value (rice root tips; 106 M PEP1 for 2 days) was “significantly shortened”. The “length of cells in the elongation zone of rice root tips” value (rice root tips; PEP1 for 2 days) was “significantly shortened”, the “changes in the quiescent center” value (rice root tips; root section after PEP1 treatment) was “no significant changes” and the “restoration of root tip defected phenotype to the Xiushui 134 level” value [2] was “could not restore”.

Reference: patent US12203088B2, “Root-secreted peptide PEP1 in rice and gene encoding the same and use thereof” (ZHEJIANG UNIVERSITY, priority 2021, dated 2025)
